According to publication PMC4166484 (European journal of medicinal chemistry, 2011):
Read-outs that look alike come from different tables or passages of the source.

Key:
[1] = test system: SKBR-3 cells; test: Cell cycle distribution by FACS; assay type: cell-based; details: SKBR-3, 0.5 μM and 5 μM, after 12h
[2] = test system: A498; assay type: cell-based; details: Homo sapiens, A498, 48 h
[3] = test system: 60 human tumor cell lines; test: NCI DTP screen against 60 human tumor cell lines; assay type: cell-based; details: read-out: IC50s, growth of a broad range of cancer cell lines
[4] = Pharmacokinetic study, intraperitoneal; assay type: in vivo, Sprague-Dawley rats; details: male, Sprague-Dawley, rat, plasma, ip, 20 mg/kg
[5] = test system: SKBR-3 breast cancer cell; test: MTT cell viability, SKBR-3 breast cancer cell growth; assay type: cell-based

In the case of `Cc1ccc(C)c(COc2cc(NC(=O)c3ccc4c(c3)OCO4)ccc2N(C)S(C)(=O)=O)c1` [Compound 10, Benzo[1,3]dioxole-5-carboxylic acid [3-(2,5-dimethyl-benzyloxy)-4-(methanesulfonyl-methyl-amino)-phenyl]-amide], the cell cycle effect [1] is reported as “accumulated at G2/M and subG1 phase”, the GI50 [2] is reported as 122 nM and the IC50 [3] is reported as 200 to 500 nM. The AUC(0-t) ([4]; Rat 2, 20mg/kg i.p.) was 22600 ng·h/mL, the AUC(0-t) ([4]; Rat 3, 20mg/kg i.p.) was 9720 ng·h/mL and the MRT last ([4]; MRT(0-t), Rat 3, 20mg/kg i.p.) was 5.62 h. For the same compound, the half-life ([4]; T1/2, Rat 1, 20mg/kg i.p.) was 2.44 h, the half-life ([4]; T1/2, Rat 2, 20mg/kg i.p.) was 3.71 h and the half-life ([4]; T1/2, Rat 3, 20mg/kg i.p.) was 3.21 h.

In the case of `COc1ccc(CC(=O)Nc2ccc(N(C)S(C)(=O)=O)c(OCc3cc(C)ccc3C)c2)cc1OC` [Compound 17, N-[3-(2,5-Dimethyl-benzyloxy)-4-(methanesulfonyl-methyl-amino)-phenyl]-(3,4-dimethoxyphenyl)-acetamide], the IC50 ([5]; Homo sapiens, SK-BR-3, 48 h, read-out: IC50 against SKBR-3 breast cancer cell growth, 48h treatment, MTT assay, six replicates) is reported as > 30000 nM.

In the case of `Cc1ccc(C)c(COc2cc(NC(=O)Cc3ccccc3)ccc2N(C)S(C)(=O)=O)c1` [Compound 24, N-[3-(2,5-Dimethyl-benzyloxy)-4-(methanesulfonyl-methyl-amino)-phenyl]-2-phenyl-acetamide], the IC50 ([5]; read-out: IC50 against SKBR-3 breast cancer cell growth, 48h treatment, MTT assay, six replicates) is reported as > 30000 nM.
